In paper PMC6325219, “Preclinical Characterization of NVR 3-778, a First-in-Class Capsid Assembly Modulator against Hepatitis B Virus” (Antimicrobial Agents and Chemotherapy, 2018):
Values joined by “and” are separate entries in the source; they are usually repeats but may differ in a detail not shown here. Equal entries are not always repeated. “Also recorded” adds a separate entry of the source. Marks after values point to notes of the source that are not given here.

Tests used:
HBV rtA181V variant = test: microbe, parasite or virus in culture; format: cell-based, hepatitis B virus; conditions: ratio of mean EC50 against variant over WT HBV, HepG2 cells
From the text: (§1) Plasmids containing HBV DNA with rtN236T, rtA181V, rtA181V/N236T, and rtL180M/M204V/N236T were generated using the GT B WT or rtL180M/M204V DNA-containing plasmids and site-directed mutagenesis (Agilent Technologies). A panel of nine different HBV core variants (cW102G, cW102R, cI105V, cI105L, cI105T, cT109S, cT109M, cT109I, and cY118F) was generated, also using the GT B WT DNA-containing plasmid and site-directed mutagenesis. The full-length genome from all plasmids was sequenced to confirm that only the intended nucleotide change(s) was present. Finally, HBV sequences from genotypes A (GenBank accession number AF305422), C (GenBank accession number AB033550), D (GenBank accession number V01460), E (GenBank accession number AB274971), F (GenBank accession number AB036912), G (GenBank accession number AF160501), and H (GenBank accession number AB375159) were gene synthesized as 1.1 times the genome length together with part of the CMV promoter at the 5′ end. The gene-synthesized piece was validated by sequencing and subcloned into the pCMV-HBV plasmid using the restriction sites SalI and NdeI (Genewiz, USA).
(§2) HepG2 cells were seeded in 96-well plates at a density of 20,000 cells/well and allowed to attach overnight at 37°C in 5% CO2. Cells were cotransfected with the HBV plasmids (100 ng/well) and a Gaussia expression plasmid (10 ng/well) (Thermo Scientific) using the Lipofectamine LTX Plus transfection reagent (Life Technologies). Transfection mixtures were removed after overnight incubation, and cells were treated with serially diluted NVR 3-778 at a final dimethyl sulfoxide (DMSO) concentration of 0.5%. After 3 days of incubation with the compound, the supernatants were collected and secreted Gaussia luciferase was measured using a Gaussia Flash luciferase assay kit (Thermo Scientific). Cells were lysed with 0.33% NP-40 (Thermo Scientific), and the cytoplasmic fractions were treated with 2 units of Turbo DNase (Invitrogen) and 10 units of S7 nuclease (Roche) in CutSmart buffer (New England Biolabs) containing 25 µM CaCl2 (G-Biosciences) at 37°C for 60 min, followed by inactivation of the enzymes at 75°C for 15 min. Samples were diluted into lysis buffer (Affymetrix) containing 2.5 µg proteinase K (Affymetrix) at 50°C for 40 min. Intracellular encapsidated HBV DNA was denatured for 30 min at 25°C in 0.2 M NaOH (Sigma) and incubated with HBV DNA probes designed to hybridize to the minus-strand HBV DNA (Affymetrix). The denatured DNA was subsequently detected using a QuantiGene assay kit, according to the branched DNA (bDNA) assay recommended by the manufacturer (Affymetrix).
(§3) To determine percent inhibition, the mean background signal from wells containing only culture medium was subtracted from the signal for all other samples, and percent inhibition at each compound concentration was calculated by normalization to the signals for HepG2.2.15 cells treated with 0.5% DMSO. […] Both CalcuSyn and MacSynergy II (Ann Arbor, MI) software were used to evaluate the effect of compound combinations ([27]). After data analysis at the 95% confidence level, values of synergy or antagonism of <25 µM^2% were defined as insignificant, those between 25 and 50 µM^2% were defined as minor, those between 50 and 100 µM^2% were defined as moderate, and those of >100 µM^2% were defined as strong.

HBV [1] = tested on: HBV; design: method as in PMID 30181376; conditions: metabolically active primary human hepatocytes; cited from earlier work
HBV rtN236T variant = format: cell-based, hepatitis B virus; conditions: ratio of mean EC50 against variant over WT HBV, HepG2 cells
From the text: as §1, §2, §3

[2] = tested on: HBV rtA181V/N236T variant; format: cell-based, hepatitis B virus; conditions: ratio of mean EC50 against variant over WT HBV, HepG2 cells
From the text: as §1, §2, §3

HBV (GT C) = tested on: HBV (GT C); design: method as in PMID 29079518; conditions: cited from earlier work
[3] = tested on: HBV isolates representing GT A to H; test: Transient-transfection antiviral study, panel of HBV isolates GT A to H (summary statements); format: cell-based, hepatitis B virus; conditions: EC50 values within this factor of each other
Method: Cells were cotransfected with the HBV plasmids (100 ng/well) and a Gaussia expression plasmid (10 ng/well) (Thermo Scientific) using the Lipofectamine LTX Plus transfection reagent (Life Technologies). Transfection mixtures were removed after overnight incubation, and cells were treated with serially diluted NVR 3-778 at a final dimethyl sulfoxide (DMSO) concentration of 0.5%. After 3 days of incubation with the compound, the supernatants were collected and secreted Gaussia luciferase was measured using a Gaussia Flash luciferase assay kit (Thermo Scientific). […] Samples were diluted into lysis buffer (Affymetrix) containing 2.5 µg proteinase K (Affymetrix) at 50°C for 40 min. Intracellular encapsidated HBV DNA was denatured for 30 min at 25°C in 0.2 M NaOH (Sigma) and incubated with HBV DNA probes designed to hybridize to the minus-strand HBV DNA (Affymetrix). The denatured DNA was subsequently detected using a QuantiGene assay kit, according to the branched DNA (bDNA) assay recommended by the manufacturer (Affymetrix).

[4] = Cell viability of HepG2.2.15 cells (ATP levels, CellTiter-Glo); format: cell-based; conditions: human, HepG2.2.15 cells, ATP levels, CellTiter-Glo
Method: In combination studies, cells were treated with compounds either alone or in combination after combining the compounds in a checkerboard format. In studies examining the effect of human serum, serially diluted NVR 3-778 was added into cell culture medium containing 0% to 40% human serum (BioreclamationIVT). Cells were incubated with the compounds for 3 days, after which the medium was removed, fresh medium containing the compounds was added to the cells, and the cells were incubated for another 3 days prior to harvesting of the supernatants or cells for antiviral assays. To quantify intracellular encapsidated rcDNA or encapsidated pgRNA, cells were first solubilized using lysis buffer containing 1% NP-40 and 10 mM CaCl2. The cytoplasmic fraction was then treated with S7 nuclease (6 units) to remove nonencapsidated nucleic acids, after which the S7 nuclease was inactivated by the addition of EDTA (0.5 M). […] The levels of HBV DNA were determined by a bDNA assay as described above (Affymetrix). Supernatants or cell lysates containing HBV RNA were treated with proteinase K (2.5 µg) at 50°C for 40 min, transferred to a capture plate containing HBV RNA probe sets, and hybridized overnight at 55°C. Captured HBV RNA was measured by the addition of a chemiluminescent substrate using a QuantiGene assay (Affymetrix). […] At day 6, the CellTiter-Glo reagent was added to the cells and viability was determined according to the manufacturer’s protocol (Promega). Luminescence signals were measured at 0.2 s using a Victor X4 multimode plate reader (PerkinElmer).

[5] = Hepatocyte stability, dog hepatocytes; format: in vitro ADME; conditions: 120 min incubation
Method: (§4) Following in vitro incubation for 120 min with human, mouse, or dog hepatocytes, >85% of the NVR 3-778 remained intact. […] The fewest number of metabolites was found following incubation with human hepatocytes, where 92% of the NVR 3-778 remained after a 120-min incubation.

[6] = Hepatocyte stability, human hepatocytes; format: in vitro ADME; conditions: 120 min incubation
Method: as §4

HBV [7] = tested on: HBV; design: method as in doi:10.1016/S0168-8278(16)00175-6; conditions: HBV-infected patients; cited from earlier work

Question: What does the source list for O=C(Nc1cc(F)c(F)c(F)c1)c1ccc(F)c(S(=O)(=O)N2CCC(O)CC2)c1 [NVR 3-778]?
Answer: EC50 fold change, rtA181V (HBV rtA181V variant): 0.82 ± 0.19^d fold; Increase in EC50 against HBV DNA replication in the presence of serum proteins (HBV [1]): about 4 fold; EC50 fold change, rtN236T (HBV rtN236T variant): 0.85 ± 0.40^d fold; EC50 fold change, rtA181V/N236T [2]: 0.85 ± 0.26^d fold; Antiviral activity compared with ETV (HBV (GT C); HBV-infected humanized mice, 405 mg/kg BID): antiviral activity similar to that of the nucleoside analog ETV; Reduction of serum HBV DNA and HBV RNA, combination with pegIFN versus NVR 3-778 alone, pegIFN alone or entecavir alone (HBV (GT C); HBV-infected humanized mice): greater reduction in both serum HBV DNA and HBV RNA levels; Effect on serum HBV DNA and HBV RNA levels (HBV (GT C); humanized mice infected with GT C HBV): effective at reducing both serum HBV DNA and HBV RNA levels; also recorded: significant reductions in HBV DNA and secreted HBV RNA levels; Spread of EC50 values against HBV DNA replication across GT A to H isolates [3]: ≤ 3 fold; CC50 at 6 days [4]: 14.5 µM; NVR 3-778 remaining intact [5]: > 85%; NVR 3-778 remaining intact [6]: > 85% and 92%; Antiviral effect, combination with pegIFN versus NVR 3-778 monotherapy (HBV [7]): greatest antiviral effect
